Measured values as given in ChEMBL document CHEMBL1201862, “PubChem BioAssay data set” (2004).
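Briefly, cells in 96-well plates were exposed to five compound concentrations for 48 h, and endpoints were estimated by linear interpolation. GI50 = concentration required for 50% inhibition of growth.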 The source made the active and inactive calls. Cut-off read from the data, not from the text of the source: active = GI50 up to about 1.1 µM and inactive = higher.

Key:
Assay in all cases: NCI-60 cell line screen, 48 h
NCI/ADR-RES = system: NCI/ADR-RES
HCT-116 = system: HCT-116
Hs-578T = system: Hs-578T
SF-539 = system: SF-539
NCI-H522 = system: NCI-H522
KM12 = system: KM12
HT-29 = system: HT-29
PC-3 = system: PC-3
ACHN = system: ACHN
Malme-3M = system: Malme-3M
RPMI-8226 = system: RPMI-8226
MDA-MB-435 = system: MDA-MB-435
CCRF-CEM = system: CCRF-CEM
SK-MEL-2 = system: SK-MEL-2
U-251 = system: U-251
COLO 205 = system: COLO 205
BT-549 = system: BT-549
SF-268 = system: SF-268
SW-620 = system: SW-620
A498 = system: A498
IGROV-1 = system: IGROV-1
786-0 = system: 786-0
SN12C = system: SN12C
SK-MEL-5 = system: SK-MEL-5
EKVX = system: EKVX
SNB-75 = system: SNB-75
HOP-62 = system: HOP-62
UO-31 = system: UO-31
SF-295 = system: SF-295
OVCAR-3 = system: OVCAR-3
A549 = system: A549
OVCAR-4 = system: OVCAR-4
MDA-MB-231 = system: MDA-MB-231
OVCAR-8 = system: OVCAR-8
MOLT-4 = system: MOLT-4
OVCAR-5 = system: OVCAR-5
DU-145 = system: DU-145
UACC-62 = system: UACC-62
NCI-H226 = system: NCI-H226
TK-10 = system: TK-10
CAKI-1 = system: CAKI-1
HL-60 = system: HL-60
SK-OV-3 = system: SK-OV-3
UACC-257 = system: UACC-257
SR = system: SR
SK-MEL-28 = system: SK-MEL-28
M14 = system: M14
MCF7 = system: MCF7
T47D = system: T47D
NCI-H23 = system: NCI-H23
RXF 393 = system: RXF 393
LOX IMVI = system: LOX IMVI
MDA-N = system: MDA-N
HCT-15 = system: HCT-15
HCC 2998 = system: HCC 2998
HOP-92 = system: HOP-92
NCI-H460 = system: NCI-H460
SNB-19 = system: SNB-19
K562 = system: K562

Compound: CC1OC(OC2C(Oc3cc(O)c4c(c3)O[C@H](c3ccc(O)cc3)CC4=O)OC(CO)C(O)C2O)C(O)C(O)C1O (some centres not stated)
- GI50 (NCI/ADR-RES): > 100 µM (inactive)
- GI50 (HCT-116): > 100 µM (inactive)
- GI50 (Hs-578T): > 100 µM (inactive)
- GI50 (SF-539): > 100 µM (inactive)
- GI50 (NCI-H522): > 100 µM (inactive)
- GI50 (KM12): > 100 µM (inactive)
- GI50 (HT-29): > 100 µM (inactive)
- GI50 (PC-3): > 100 µM (inactive)
- GI50 (ACHN): > 100 µM (inactive)
- GI50 (Malme-3M): > 100 µM (inactive)
- GI50 (RPMI-8226): > 100 µM (inactive)
- GI50 (MDA-MB-435): > 100 µM (inactive)
- GI50 (CCRF-CEM): > 100 µM (inactive)
- GI50 (SK-MEL-2): > 100 µM (inactive)
- GI50 (U-251): > 100 µM (inactive)
- GI50 (COLO 205): > 100 µM (inactive)
- GI50 (BT-549): > 100 µM (inactive)
- GI50 (SF-268): > 100 µM (inactive)
- GI50 (SW-620): > 100 µM (inactive)
- GI50 (A498): > 100 µM (inactive)
- GI50 (IGROV-1): > 100 µM (inactive)
- GI50 (786-0): > 100 µM (inactive)
- GI50 (SN12C): > 100 µM (inactive)
- GI50 (SK-MEL-5): > 100 µM (inactive)
- GI50 (EKVX): > 100 µM (inactive)
- GI50 (SNB-75): > 100 µM (inactive)
- GI50 (HOP-62): > 100 µM (inactive)
- GI50 (UO-31): > 100 µM (inactive)
- GI50 (SF-295): > 100 µM (inactive)
- GI50 (OVCAR-3): > 100 µM (inactive)
- GI50 (A549): > 100 µM (inactive)
- GI50 (OVCAR-4): > 100 µM (inactive)
- GI50 (MDA-MB-231): > 100 µM (inactive)
- GI50 (OVCAR-8): > 100 µM (inactive)
- GI50 (MOLT-4): > 100 µM (inactive)
- GI50 (OVCAR-5): > 100 µM (inactive)
- GI50 (DU-145): > 100 µM (inactive)
- GI50 (UACC-62): > 100 µM (inactive)
- GI50 (NCI-H226): > 100 µM (inactive)
- GI50 (TK-10): > 100 µM (inactive)
- GI50 (CAKI-1): > 100 µM (inactive)
- GI50 (HL-60): > 100 µM (inactive)
- GI50 (SK-OV-3): > 100 µM (inactive)
- GI50 (UACC-257): > 100 µM (inactive)
- GI50 (SR): > 100 µM (inactive)
- GI50 (SK-MEL-28): > 100 µM (inactive)
- GI50 (M14): > 100 µM (inactive)
- GI50 (MCF7): > 100 µM (inactive)
- GI50 (T47D): > 100 µM (inactive)
- GI50 (NCI-H23): > 100 µM (inactive)
- GI50 (RXF 393): > 100 µM (inactive)
- GI50 (LOX IMVI): > 100 µM (inactive)
- GI50 (MDA-N): > 100 µM (inactive)
- GI50 (HCT-15): > 100 µM
- GI50 (HCC 2998): > 100 µM (inactive)
- GI50 (HOP-92): > 100 µM (inactive)

Compound: O=[N+]([O-])c1cc(Cl)cc2cc(Br)cnc12
- GI50 (NCI/ADR-RES): > 31.6 µM (inactive)
- GI50 (HCT-116): > 31.6 µM (inactive)
- GI50 (Hs-578T): 17.6 µM (inactive)
- GI50 (SF-539): > 31.6 µM (inactive)
- GI50 (NCI-H522): 29.6 µM (inactive)
- GI50 (KM12): > 10 µM (inactive)
- GI50 (HT-29): > 31.6 µM (inactive)
- GI50 (PC-3): > 31.6 µM (inactive)
- GI50 (NCI-H460): > 31.6 µM (inactive)
- GI50 (SNB-19): 27.8 µM (inactive)
- GI50 (ACHN): > 31.6 µM (inactive)
- GI50 (Malme-3M): > 31.6 µM (inactive)
- GI50 (RPMI-8226): > 31.6 µM (inactive)
- GI50 (MDA-MB-435): > 31.6 µM (inactive)
- GI50 (CCRF-CEM): > 31.6 µM (inactive)
- GI50 (SK-MEL-2): 39.9 µM (inactive)
- GI50 (U-251): 20.1 µM (inactive)
- GI50 (COLO 205): > 31.6 µM (inactive)
- GI50 (BT-549): 28.1 µM (inactive)
- GI50 (SF-268): > 10 µM (inactive)
- GI50 (K562): > 31.6 µM (inactive)
- GI50 (A498): 23.6 µM (inactive)
- GI50 (786-0): 21.4 µM (inactive)
- GI50 (SN12C): > 31.6 µM (inactive)
- GI50 (SK-MEL-5): 16.7 µM (inactive)
- GI50 (EKVX): > 31.6 µM (inactive)
- GI50 (SNB-75): > 31.6 µM (inactive)
- GI50 (HOP-62): > 31.6 µM (inactive)
- GI50 (UO-31): > 31.6 µM (inactive)
- GI50 (SF-295): 21.9 µM (inactive)
- GI50 (OVCAR-3): > 31.6 µM (inactive)
- GI50 (A549): > 31.6 µM (inactive)
- GI50 (OVCAR-4): > 31.6 µM (inactive)
- GI50 (MDA-MB-231): 21.1 µM (inactive)
- GI50 (OVCAR-8): 24.1 µM (inactive)
- GI50 (MOLT-4): > 31.6 µM (inactive)
- GI50 (OVCAR-5): > 31.6 µM (inactive)
- GI50 (DU-145): > 31.6 µM (inactive)
- GI50 (UACC-62): 23.2 µM (inactive)
- GI50 (NCI-H226): 29.6 µM (inactive)
- GI50 (TK-10): 27.7 µM (inactive)
- GI50 (CAKI-1): > 10 µM (inactive)
- GI50 (HL-60): > 31.6 µM (inactive)
- GI50 (SK-OV-3): > 10 µM (inactive)
- GI50 (UACC-257): 31.1 µM (inactive)
- GI50 (SR): > 31.6 µM (inactive)
- GI50 (SK-MEL-28): > 31.6 µM (inactive)
- GI50 (M14): > 31.6 µM (inactive)
- GI50 (MCF7): > 31.6 µM (inactive)
- GI50 (T47D): > 31.6 µM (inactive)
- GI50 (NCI-H23): 26.9 µM (inactive)
- GI50 (RXF 393): > 31.6 µM (inactive)
- GI50 (LOX IMVI): > 31.6 µM (inactive)
- GI50 (MDA-N): > 31.6 µM (inactive)
- GI50 (HCT-15): > 31.6 µM
- GI50 (HCC 2998): > 31.6 µM (inactive)
- GI50 (HOP-92): 5.46 µM (inactive)

Compound: C1CN(C23OC4(N5CCOCC5)C5C6CC(C7C6C4C72)C53)CCO1 (configuration not stated)
- GI50 (NCI/ADR-RES): > 100 µM (inactive)
- GI50 (HCT-116): > 100 µM (inactive)
- GI50 (Hs-578T): > 100 µM (inactive)
- GI50 (SF-539): > 100 µM (inactive)
- GI50 (NCI-H522): > 83.4 µM (inactive)
- GI50 (KM12): > 100 µM (inactive)
- GI50 (HT-29): > 100 µM (inactive)
- GI50 (PC-3): > 100 µM (inactive)
- GI50 (NCI-H460): > 100 µM (inactive)
- GI50 (SNB-19): > 100 µM (inactive)
- GI50 (ACHN): > 31.6 µM (inactive)
- GI50 (Malme-3M): > 100 µM (inactive)
- GI50 (RPMI-8226): > 100 µM (inactive)
- GI50 (MDA-MB-435): > 100 µM (inactive)
- GI50 (CCRF-CEM): > 100 µM (inactive)
- GI50 (SK-MEL-2): > 100 µM (inactive)
- GI50 (U-251): > 100 µM (inactive)
- GI50 (COLO 205): > 100 µM (inactive)
- GI50 (BT-549): > 100 µM (inactive)
- GI50 (SF-268): > 100 µM (inactive)
- GI50 (SW-620): > 100 µM (inactive)
- GI50 (K562): > 100 µM (inactive)
- GI50 (A498): > 100 µM (inactive)
- GI50 (IGROV-1): > 100 µM (inactive)
- GI50 (786-0): > 100 µM (inactive)
- GI50 (SN12C): > 100 µM (inactive)
- GI50 (SK-MEL-5): > 100 µM (inactive)
- GI50 (EKVX): > 100 µM (inactive)
- GI50 (SNB-75): > 70.8 µM (inactive)
- GI50 (HOP-62): > 100 µM (inactive)
- GI50 (UO-31): > 100 µM (inactive)
- GI50 (SF-295): > 100 µM (inactive)
- GI50 (OVCAR-3): > 100 µM (inactive)
- GI50 (A549): > 100 µM (inactive)
- GI50 (OVCAR-4): > 100 µM (inactive)
- GI50 (MDA-MB-231): > 100 µM (inactive)
- GI50 (OVCAR-8): > 100 µM (inactive)
- GI50 (MOLT-4): > 100 µM (inactive)
- GI50 (OVCAR-5): > 100 µM (inactive)
- GI50 (DU-145): > 100 µM (inactive)
- GI50 (UACC-62): > 100 µM (inactive)
- GI50 (NCI-H226): > 100 µM (inactive)
- GI50 (TK-10): > 100 µM (inactive)
- GI50 (CAKI-1): > 100 µM (inactive)
- GI50 (HL-60): > 100 µM (inactive)
- GI50 (SK-OV-3): > 100 µM (inactive)
- GI50 (UACC-257): > 100 µM (inactive)
- GI50 (SR): > 100 µM (inactive)
- GI50 (SK-MEL-28): > 100 µM (inactive)
- GI50 (M14): > 100 µM (inactive)
- GI50 (MCF7): > 100 µM (inactive)
- GI50 (T47D): > 100 µM (inactive)
- GI50 (NCI-H23): > 100 µM (inactive)
- GI50 (RXF 393): > 100 µM (inactive)
- GI50 (LOX IMVI): > 100 µM (inactive)
- GI50 (MDA-N): > 100 µM (inactive)
- GI50 (HCT-15): > 100 µM
- GI50 (HCC 2998): > 100 µM (inactive)
- GI50 (HOP-92): > 100 µM (inactive)
